The target in assay [1] is T1, IL-2βγc receptor (Homo sapiens, UniProt P31785).
T1 construct: pcDNA3.1 expression vector encoding full-length IL-2Rβ, IL-7Rα, IL-9Rα, or IL-21Rα; TF-1 cells naturally express γc and IL-4Rα; expressed in transfected cells
T1 sequence (P31785 23-369): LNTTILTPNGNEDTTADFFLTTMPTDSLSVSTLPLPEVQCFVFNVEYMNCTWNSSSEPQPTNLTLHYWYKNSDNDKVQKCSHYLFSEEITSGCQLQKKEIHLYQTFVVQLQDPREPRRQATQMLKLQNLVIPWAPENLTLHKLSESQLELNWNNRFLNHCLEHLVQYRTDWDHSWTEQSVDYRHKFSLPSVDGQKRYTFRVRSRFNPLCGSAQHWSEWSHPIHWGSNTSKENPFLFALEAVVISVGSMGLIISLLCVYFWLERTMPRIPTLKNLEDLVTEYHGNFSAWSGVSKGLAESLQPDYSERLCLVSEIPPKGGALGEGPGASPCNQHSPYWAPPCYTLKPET
Nature of the assay: IL-2-induced pSTAT5 in TF-1 cells expressing IL-2/15Rβ. The class given is cell-based. The protocol:
Cells were deprived of growth factors by overnight incubation at 5×10^5 cells/mL in starvation medium (RPMI 1640 + 4.5 g/L glucose + 0.2% FBS + 2 mM L-glutamine + 1 mM NaPyr + 10 mM HEPES + 0.5x penicillin-streptomycin with no cytokine supplement) in T75 flasks. For assays, cells were plated in 96-well V-bottom plates at 2×10^5 cells/well. Three-fold serial dilutions in starvation medium of the test compounds or cytokine were added to the cells and incubated for 30 min at 37°C. Following incubation, cell extracts were prepared by adding a mixture of 10x Cell Lysis Buffer (Cell Signaling Technology Cat# 9803) and 100x HALT Phosphatase and Protease Inhibitor Cocktail (Thermo Fisher Cat# 78442) directly to the wells. The plates were agitated at 25°C for 5 min to prepare cell extracts for immediate use or to be stored at -80°C until assay. Detection of pSTAT5 was performed using a PathScan® Phospho-Stat5 (pTyr694) Sandwich ELISA Kit (Cell Signaling Technology Cat# 7113). Detection of pSTAT6 was performed using a PathScan® Phospho-Stat6 (pTyr641) Sandwich ELISA Kit (Cell Signaling Technology Cat# 7275). Detection of pSTAT3 was performed using a PathScan® Phospho-Stat3 (pTyr705) Sandwich ELISA Kit (Cell Signaling Technology Cat# 7300). Cell lysates were added to pre-coated ELISA wells and incubated at 4°C overnight. […]

The target of assay [2] is T2, human γc ECD (Homo sapiens, UniProt P31785).
T2 construct: human IL-2Rα(aa 23–254)-Fc, Acro Cat# ILG-H5256; purchased Acro ILG-H5256
T2 sequence (P31785 23-254): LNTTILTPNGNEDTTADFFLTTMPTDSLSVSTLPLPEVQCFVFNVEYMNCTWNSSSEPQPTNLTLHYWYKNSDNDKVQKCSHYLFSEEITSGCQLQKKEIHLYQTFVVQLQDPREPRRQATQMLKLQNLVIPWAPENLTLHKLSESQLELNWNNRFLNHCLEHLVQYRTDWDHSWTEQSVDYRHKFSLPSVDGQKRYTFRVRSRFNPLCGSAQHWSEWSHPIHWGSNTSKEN
Nature of the assay: Competition binding ELISA, human γc ECD. The note with it: immobilized Fc-γc ECD; tracer biotinylated MDK1188 pre-complexed with Neutravidin-HRP; 4°C. The source says:
(A, B) Determination of IC50 values in a competition ELISA for compound binding to human and cyno IL-7Rα and γc. The assay format is IL-7Rα-(His)6-tagged ECD or Fc-γc ECD immobilized on 96-well plates. Tracers are C-terminal biotinylated forms of the reference IL-7Rα and γc peptide ligands, each pre-complexed with Neutravidin-HRP (NA-HRP). (C, D) Label-free measurement of the equilibrium dissociation constant (KD) for peptide binding to IL-7Rα and γc extracellular domains with peptides was performed by biolayer interferometry as detailed in methods. Red lines depict 1:1 binding fit from Gator™ software. Blue lines represent individual BLI sensogram data taken every 0.1 seconds.
Binding was determined using a competition binding ELISA. Microtiter plates (Immulon 4HBX flat bottom 96-well) were coated with 50 μL of […] human ECDs: IL-7Rα(aa 21–236)-His6, Sino Biological Cat# 10975-H08H; cynomolgus IL-7Rα(aa 21–235)-His6, Sino Biological Cat# 90332-C08H; human IL-2Rα(aa 23–254)-Fc, Acro Cat# ILG-H5256; cynomolgus IL-2Rα(aa 23–254)-Fc, made in-house, in PBS overnight at 4°C. […] Plates were washed with cold wash buffer, and bound tracer was detected using TMB One Component HRP substrate and Stop Solution (Surmodics Cat# TMBW-1000-01 and LSTP-0100-01). Absorbance at 450 nm was read using Agilent BioTek Synergy HTX Multimode Reader.

pIC50: −log10 of the molar value. Bridge positions count the residues as written; N and C are the ends. Ends that are not written are not given here.

Results on 1 substance are retold here after publication PMC10597491 (PLOS ONE, 2023).

On to “Ac-GWGIPWCTLDPGSLQCAWLGKHGGGGSGGVVCQDWEGVELCWQGG (disulfide 7-16, 32-41) [MDK1472]”, for which the pIC50 in assay [1] is approximately 5.30; in assay [2] it was 7.24.
